Like-named read-outs stand apart in the source and are kept apart here.
Legend:
Format in all cases: cell-based, human
[1] = test system: KRAS G12C mutant MIA PaCa-2 cells; test: Cell proliferation inhibition experiment, 3D spheroid, CellTiter-Glo, MIA PaCa-2; conditions: 3D cell model in 384-well spheroid plate, 5 days, CellTiter-Glo, read-out: MIA-PaCa2 IC50
Description: Raw materials and instruments: MIA PaCa-2 purchased from ATCC; article number: CRL-1420; batch number: 63143594; DMEM purchased from Gibco; article number: 11995-065; batch number: 2186878; FBS purchased from Gibco; article number: 10099-141; batch number: 2109290CP; Horse Serum purchased from Gibco; article number: 16050-122; batch number: 1818976; PS purchased from Gibco; article number: 15140-122; batch number: 2145451; Trypsin-EDTA purchased from Gibco; article number: 25200-072; batch number: 2085552; CellTiter Glo working solution purchased from Promega; article number: G9683; batch number 398478; DMSO purchased from VWR AMRESCO; article number: 0231-500ML; batch number: 18C0656168; 384-well spheroid plate purchased from Corning; article number: 3830; batch number: 27519032; white opaque 384-well plate purchased from Corning; article number: 3570; batch number: 26819023; microplate reader purchased from PerkinElmer; model: Envision MLD2105-0020; equipment number 1050369.
MIA PaCa-2 is a KRAS G12C mutant human pancreatic cancer cell line, cultured in 10% FBS+2.5% Horse Serum DMEM+1% PS culture medium; cells at logarithmic growth stage were taken, digested with trypsin-EDTA, then collected and counted, and 200 MIA PaCa-2 were inoculated in a 384-well spheroid plate, respectively, and cultured overnight to establish a 3D cell model. A 3.16-fold gradient concentration stock solution of 1000× compound was prepared with DMSO, and diluted 100-fold to 10× compound stock solution with culture medium. On the second day after cell inoculation, 10× compound stock solution was added to each cell culture well, with a final concentration of 1× and a DMSO content of 0.1%. DMSO was used as experimental control (control), and culture medium was used as blank control (blank). After 5 days of compound cell culture, 30 μL of CellTiter-Glo working solution was added to each well, mixed well and incubated for 30 minutes. After standing at room temperature for 30 minutes, 40 μL of the mixed solution was transferred to a white opaque 384-well plate, and the luminescence chemiluminescence value was read with a microplate reader. The cell proliferation inhibition rate IR (%)=(RLU control -RLU compound)/(RLU control−RLU blank)×100% was calculated. The gradient dilution concentration of the compound and the corresponding cell proliferation inhibition rate were fitted by XLFit four-parameter method, and the IC50 value was calculated. The inhibitory activity of the compounds prepared in the above embodiments of the present disclosure on KRAS G12C mutant MIA PaCa-2 cells was 0.0001 μM to 0.5 μM; the inhibitory activity of some compounds on KRAS G12C mutant MIA PaCa-2 cells was 0.001 μM to 0.1 μM or 0.001 μM to 0.05 μM.

[2] = test system: A549 cells (KRAS G12S mutant); test: Cell proliferation inhibition experiment, 3D spheroid, CellTiter-Glo, A549; conditions: A549 (KRAS G12S mutant) 3D spheroid, 5 days with compound, CellTiter-Glo, read-out: A549 IC50
Description: (§1) Raw materials and instruments: NCI-H358 purchased from ATCC; article number: CRL-5807; batch number: 70010825; A549 purchased from ATCC; article number: CCL-185; batch number: 70007820; RPMI1640 purchased from Gibco; article number: 11875-093; batch number: 2152748; F-12K purchased from Gibco; article number: 21127-022; batch number: 2185853; FBS purchased from Gibco; article number: 10099-141; batch number: 2109290CP; PS purchased from Gibco; article number: 15140-122; batch number: 2145451; Trypsin-EDTApurchased from Gibco; article number: 25200-072; batch number: 2085552; CellTiter Glo working solution purchased from Promega; article number: G9683; batch number: 398478; DMSO purchased from VWR AMRESCO; article number: 0231-500ML; batch number: 18C0656168; 384-well spheroid plate purchased from Corning; article number: 3830; batch number: 27519032; white opaque 384-well plate purchased from Corning; article number: 3570; batch number: 26819023; microplate reader purchased from PerkinElmer; model: Envision MLD2105-0020; equipment number 1050369.
(§2) NCI-H358 is a KRAS G12C mutant human non-small cell lung cancer cell line, cultured in 10% FBS RPMI-1640+1% PS culture medium; and A549 is a KRAS G12S mutant human lung adenocarcinoma cell line, cultured in 10% FBS F-12K+1% PS culture medium. Cells at logarithmic growth stage were taken, digested with trypsin-EDTA, then collected and counted. H358 was adjusted to 1.8 E4 cells/mL with 2% FBS RPMI-1640 culture medium, and A549 was adjusted to 8.9 E3 cells/mL with 2% FBS F-12K culture medium; 800 (45 μL) H358 or 400 (45 μL) A549 were inoculated respectively in a 384-well spheroid plate and cultured overnight to establish a 3D cell model. A 3.16-fold gradient concentration stock solution of 1000× compound was prepared with DMSO, and diluted 100-fold to 10× compound stock solution with 2% FBS culture medium. On the second day after cell inoculation, 5 μL of 10× compound stock solution was added to each cell culture well, with a final concentration of 1× and a DMSO content of 0.1%. DMSO was used as experimental control (control), and 2% FBS culture medium was used as blank control (blank). After 5 days of compound cell culture, 25 μL of CellTiter-Glo working solution was added to each well, mixed well at 400 rpm and incubated for 30 minutes. After standing at room temperature for 30 minutes, 40 μL of the mixed solution was transferred to a white opaque 384-well plate, and the luminescence chemiluminescence value was read with a microplate reader. The cell proliferation inhibition rate IR (%)=(RLU control -RLU compound)/(RLU control -RLU blank) x100% was calculated. The gradient dilution concentration of the compound and the corresponding cell proliferation inhibition rate were fitted by Prism 6 four-parameter method, and the IC50 value was calculated. The inhibitory activity of the compounds prepared in the above embodiments of the present disclosure on KRAS G12C mutant NCI-H358 cells was 0.0001 μM to 0.5 μM; the inhibitory activity of some compounds on KRAS G12C mutant NCI-H358 cells was 0.001 μM to 0.1 μM or 0.001 μM to 0.05 μM.

[3] = test system: KRAS G12C mutant NCI-H358 cells; test: Cell proliferation inhibition experiment, 3D spheroid, CellTiter-Glo, NCI-H358; conditions: NCI-H358 (KRAS G12C mutant) 3D spheroid, 5 days with compound, CellTiter-Glo, read-out: H358 IC50
Description: as §1, §2

[4] = Homo sapiens, MIA PaCa-2, 120 h

SMILES | IC50 [1, 4] | IC50 ([2]; Homo sapiens, A549, 120 h) | IC50 ([3]; Homo sapiens, NCI-H358, 120 h) | IC50 [1] | IC50 [2] | IC50 [3]
C=CC(=O)N1CCN2C(=O)c3c(N4CCO[C@@H](C)C4)nc(-c4c(O)cccc4F)c(Cl)c3OC[C@H]2C1 [Z23, (6aR)-8-acryloyl-4-chloro-3-(2-fluoro-6-hydroxyphenyl)-1-((S)-2-methylmorpholino)-6,6a,7,8,9,10-hexahydro-12H-pyrazino[2,1-c]pyrido[3,4-f][1,4]oxazepin-12-one] | 73 nM | > 5000 nM | 50 nM |  |  | 
C=CC(=O)N1CCN2C(=O)c3c(-c4c(F)cccc4OC)nc(-c4c(O)cccc4F)c(Cl)c3OC[C@H]2C1 [Z55, (6aR)-8-acryloyl-4-chloro-3-(2-fluoro-6-hydroxyphenyl)-1-(2-fluoro-6-methoxyphenyl)-6,6a,7,8,9,10-hexahydro-12H-pyrazino[2,1-c]pyrido[3,4-f]oxazepin-12-one] |  |  |  | 361 nM | > 1000 nM | 134 nM
C=CC(=O)N1CCN2C(=O)c3c(N4CCO[C@H](C)C4)nc(-c4c(O)cccc4F)c(Cl)c3OC[C@H]2C1 [Z24, (6aR)-8-acryloyl-4-chloro-3-(2-fluoro-6-hydroxyphenyl)-1-((R)-2-methylmorpholino)-6,6a,7,8,9,10-hexahydro-12H-pyrazino[2,1-c]pyrido[3,4-f][1,4]oxazepin-12-one] | 36 nM | > 5000 nM | 26 nM |  |  | 
C=CC(=O)N1CCN2C(=O)c3c(N4CCC5(CCOC5)C4)nc(-c4c(O)cccc4F)c(Cl)c3OC[C@H]2C1 (stereo partly drawn) [Z59, (6aR)-8-acryloyl-4-chloro-3-(2-fluoro-6-hydroxyphenyl)-1-(2-oxa-7-azaspiro[4.4]nonan-7-yl)-6,6a,7,8,9,10-hexahydro-12H-pyrazino[2,1-c]pyrido[3,4-f][1,4]oxazepin-12-(6aH)-one] |  |  |  | 27 nM | > 30000 nM | 19 nM
C=CC(=O)N1CCN2C(=O)c3c(N4CCCC4)nc(-c4c(O)cccc4F)c(Cl)c3OC[C@H]2C1 [Z11, (6aR)-8-acryloyl-4-chloro-3-(2-fluoro-6-hydroxyphenyl)-1-(pyrrolidin-1-yl)-6,6a,7,8,9,10-hexahydro-12H-pyrazino[2,1-c]pyrido[3,4-f][1,4]oxazepin-12-one] | 64 nM | 9340 nM | 42 nM |  |  | 
C=CC(=O)N1CCN2C(=O)c3c(N[C@@H](C)c4ccccc4)nc(-c4c(O)cccc4F)c(Cl)c3OC[C@H]2C1 [Z29, (6aR)-8-acryloyl-4-chloro-3-(2-fluoro-6-hydroxyphenyl)-1-(((S)-1-phenylethyl)amino)-6,6a,7,8,9,10-hexahydro-12H-pyrazino[2,1-c]pyrido[3,4-f][1,4]oxazepin-12-one] | 77 nM | 2430 nM | 30 nM |  |  | 
C=CC(=O)N1CCN2C(=O)c3c(Oc4cccc5c4OC(C)(C)C5)nc(-c4c(O)cccc4F)c(Cl)c3OC[C@H]2C1 [Z42, (6aR)-8-acryloyl-4-chloro-1-((2,2-dimethyl-2,3-dihydrobenzofuran-7-yl)oxy)-3-(2-fluoro-6-hydroxyphenyl)-6,6a,7,8,9,10-hexahydro-12H-pyrazino[2,1-c]pyrido[3,4-f][1,4]oxazepin-12-one] | 87 nM | 6290 nM | 37 nM |  |  | 
C=CC(=O)N1CCN2Cc3c(Nc4c(C)ccnc4C(C)C)nc(-c4c(O)cccc4F)c(Cl)c3OC[C@H]2C1 [Z19, 1-((6aR)-4-chloro-3-(2-fluoro-6-hydroxyphenyl)-1-((2-isopropyl-4-methylpyridin-3-yl)amino)-6a,7,9,10-tetrahydro-12H-pyrazino[2,1-c]pyrido[3,4-f][1,4]oxazepin-8(6H)-yl)prop-2-en-1-one] | 63 nM | > 30000 nM | 35 nM |  |  | 
C=CC(=O)N1CCN2C(=O)c3c(N4CCOCC4)nc(-c4c(O)cccc4F)c(Cl)c3OC[C@H]2C1 [Z10, (6aR)-8-acryloyl-4-chloro-3-(2-fluoro-6-hydroxyphenyl)-1-morpholino-6,6a,7,8,9,10-hexahydro-12H-pyrazino[2,1-c]pyrido[3,4-f][1,4]oxazepin-12-one] | 67 nM | > 20000 nM | 39 nM |  |  | 
C=CC(=O)N1CCN2C(=O)c3c(N4CCOC[C@@H]4CC)nc(-c4c(O)cccc4F)c(Cl)c3OC[C@H]2C1 [Z52, (6aR)-8-acryloyl-4-chloro-1-((S)-3-ethylmorpholino)-3-(2-fluoro-6-hydroxyphenyl)-6,6a,7,8,9,10-hexahydro-12H-pyrazino[2,1-c]pyrido[3,4-f][1,4]oxazepin-12-one] | 39 nM | > 5000 nM | 36 nM |  |  | 
C=CC(=O)N1CCN2C(=O)c3c(N4CCC5(CC5)C4)nc(-c4c(O)cccc4F)c(Cl)c3OC[C@H]2C1 [Z44, (6aR)-8-acryloyl-4-chloro-3-(2-fluoro-6-hydroxyphenyl)-1-(5-azaspiro[2.4]heptan-5-yl)-6,6a,7,8,9,10-hexahydro-12H-pyrazino[2,1-c]pyrido[3,4-f][1,4]oxazepin-12-one] | 51 nM | > 5000 nM | 26 nM |  |  | 
